Values joined by “and” are separate entries in the source; they are usually repeats but may differ in a detail not shown here. Identical values can stand only once. ± gives the expanded uncertainty stated by the source.
Details: Liquid, Transpiration method

vapor or sublimation pressure (298.15 K): 3.178 ± 0.13 kPa
SMILES: O [water]
vapor or sublimation pressure (293.15 K): 2.319 ± 0.094 kPa and 2.32 ± 0.094 kPa and 2.315 ± 0.094 kPa

Reference: the NIST ThermoML archive (doi:10.1021/acs.jced.6b00357)
